Read-outs that look alike come from different tables or passages of the source.
Columns and labels:
[1] = rats; cited from earlier work
[2] = cited from earlier work
Caco-2 cell monolayer = assay: in vitro; format: in vitro ADME; conditions: human, Caco-2, 90 min
How it was run: (§1)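 Permeability measured in both directions across 19-day Caco-2 layers with TEER above 600 […], incubated at 37° C without shaking; donor and receiver sampled at 10 and 90 min for LC/MS/MS. Derived values: Papp (cm/s), efflux ratio, recovery.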

in vitro = in vitro ADME; conditions: human
How it was run: as §1

[3] = Caco-2 monolayer, apical to basolateral, 90-minute incubation, read-out: Papp, A-B
[4] = Caco-2 monolayer, basolateral to apical, 90-minute incubation, read-out: Papp, B-A
[5] = Caco-2 monolayer, ER>2 indicates potential efflux transporter substrate, read-out: ER (efflux ratio)

Row | Compound | Papp A→B at 90 min (in vitro; Caco-2) [nm/s] | Papp B→A at 90 min (in vitro; Caco-2) [nm/s] | efflux ratio at 90 min (in vitro; Caco-2) | other results
1 | N#C[C@@]1(c2ccc3c(N)ncnn23)O[C@H](CO)[C@@H](O)[C@H]1O [GS-441524] |  |  |  | % F (oral bioavailability) [1]: 4.8%; T½ in plasma ([2]; plasma, following IV administration): about 24.5 hr
2 | CCC(CC)COC(=O)[C@H](C)N[P@](=O)(OC[C@H]1O[C@@](C#N)(c2ccc3c(N)ncnn23)[C@H](O)[C@@H]1O)Oc1ccccc1 [remdesivir, Remdesivir] |  |  |  | T1/2 (hydrolysis by esterases) ([2]; in vivo, iv): about 1 hr
3 | N#C[C@@]1(c2ccc3c(NC(=O)[C@@H](N)Cc4ccc(F)cc4)ncnn23)O[C@H](CO)[C@@H](O)[C@H]1O [Compound 84, (S)-2-amino-N-(7-((2R,3R,4S,5R)-2-cyano-3,4-dihydroxy-5-(hydroxymethyl)tetrahydrofuran-2-yl)pyrrolo[2,1-f][1,2,4]triazin-4-yl)-3-(4-fluorophenyl)propenamide] |  |  |  | Papp, A-B (Caco-2 cell monolayer): 0 nm/s; Papp, B-A (Caco-2 cell monolayer): 0 nm/s
4 | CCCCC(=O)Nc1ncnn2c([C@]3(C#N)O[C@H](COC(=O)CC(C)C)[C@@H](O)[C@H]3O)ccc12 [Compound 283, ((2R,3S,4R,5R)-5-cyano-3,4-dihydroxy-5-(4-pentanamidopyrrolo[2,1-f][1,2,4]triazin-7-yl)tetrahydrofuran-2-yl)methyl 3-methylbutanoate] | 30 | 10 | 0.34 | 
5 | CC(C)[C@H](N)C(=O)OC[C@H]1O[C@@](C#N)(c2ccc3c(NC(=O)[C@@H](N)Cc4ccc(F)cc4)ncnn23)[C@H](O)[C@@H]1O [Compound 94, ((2R,3S,4R,5R)-5-(4-((S)-2-amino-3-(4-fluorophenyl)propanamido)pyrrolo[2,1-f][1,2,4]triazin-7-yl)-5-cyano-3,4-dihydroxytetrahydrofuran-2-yl)methyl L-valinate] | 0.7 | 6.4 | 9.1 | 
6 | N#C[C@@]1(c2ccc3c(N)ncnn23)O[C@H](COC(=O)C2(c3ccccc3)CC2)[C@@H](O)[C@H]1O [Compound 289, ((2R,3S,4R,5R)-5-(4-aminopyrrolo[2,1-f][1,2,4]triazin-7-yl)-5-cyano-3,4-dihydroxytetrahydrofuran-2-yl)methyl 1-phenylcyclopropane-1-carboxylate] | 64 | 250 | 3.8 | 
7 | N#C[C@@]1(c2ccc3c(NC(=O)c4ccccc4)ncnn23)O[C@H](CO)[C@@H](OC(=O)Cc2ccccc2)[C@H]1O [Compound 143, (2R,3S,4R,5R)-5-(4-benzamidopyrrolo[2,1-f][1,2,4]triazin-7-yl)-5-cyano-4-hydroxy-2-(hydroxymethyl)tetrahydrofuran-3-yl 2-phenylacetate] |  |  |  | Papp A→B at 90 min (in vitro; [3]): 6.7 nm/s; Papp B→A at 90 min (in vitro; [4]): 1.2 nm/s; efflux ratio at 90 min (in vitro; [5]): 0.18
8 | CCC(=O)OC[C@H]1O[C@@H](n2cnc3c(NC)nc(N)nc32)[C@](C)(F)[C@@H]1O [Compound 180, ((2R,3R,4R,5R)-5-(2-amino-6-(methylamino)-9H-purin-9-yl)-4-fluoro-3-hydroxy-4-methyltetrahydrofuran-2-yl)methyl propionate] |  |  |  | Papp A→B at 90 min (in vitro; [3]): 46 nm/s; Papp B→A at 90 min (in vitro; [4]): 76 nm/s; efflux ratio at 90 min (in vitro; [5]): 1.6
9 | CC(=O)O[C@@H]1[C@H](OC(=O)[C@@H](N)C(C)C)[C@@H](COC(=O)Cc2ccccc2)O[C@@]1(C#N)c1ccc2c(N)ncnn12 [Compound 343, (2R,3R,4R,5R)-4-acetoxy-5-(4-aminopyrrolo[2,1-f][1,2,4]triazin-7-yl)-5-cyano-2-((2-phenylacetoxy)methyl)tetrahydrofuran-3-yl L-valinate] |  |  |  | Papp A→B at 90 min (in vitro; [3]): 12 nm/s; Papp B→A at 90 min (in vitro; [4]): 65 nm/s; efflux ratio at 90 min (in vitro; [5]): 5.6
10 | CC(=O)OCOC(=O)Nc1ncnn2c([C@]3(C#N)O[C@H](COC(=O)CC4(N)CCCCC4)[C@@H](O)[C@H]3O)ccc12 [Compound 363, ((2R,3S,4R,5R)-5-(4-(((acetoxymethoxy)carbonyl)amino)pyrrolo[2,1-f][1,2,4]triazin-7-yl)-5-cyano-3,4-dihydroxytetrahydrofuran-2-yl)methyl 2-(1-aminocyclohexyl)acetate] | 0.7 | 0.2 | 0.33 | 
11 | N#C[C@@]1(c2ccc3c(N)ncnn23)O[C@H](COC(=O)CC2CCS(=O)(=O)CC2)[C@@H](O)[C@H]1O [Compound 280, ((2R,3S,4R,5R)-5-(4-aminopyrrolo[2,1-f][1,2,4]triazin-7-yl)-5-cyano-3,4-dihydroxytetrahydrofuran-2-yl)methyl 2-(1,1-dioxidotetrahydro-2H-thiopyran-4-yl)acetate] | 3.8 | 9.1 | 2.4 | 
12 | CC(=O)OC[C@H]1O[C@@](C#N)(c2ccc3c(N)ncnn23)[C@H](O)[C@@H]1OC(=O)CC1CCCCC1 [Compound 50, (2R,3S,4R,5R)-2-(acetoxymethyl)-5-(4-aminopyrrolo[2,1-f][1,2,4]triazin-7-yl)-5-cyano-4-hydroxytetrahydrofuran-3-yl 2-cyclohexylacetate] | 19 | 7.6 | 0.39 | 
13 | N#C[C@@]1(c2ccc3c(N)ncnn23)O[C@H](COC(=O)CC2CCC2)[C@@H](O)[C@H]1O [Compound 265, ((2R,3S,4R,5R)-5-(4-aminopyrrolo[2,1-f][1,2,4]triazin-7-yl)-5-cyano-3,4-dihydroxytetrahydrofuran-2-yl)methyl 2-cyclobutylacetate] | 2.9 | 3.6 | 1.2 | 
14 | CC(C)(C)C(=O)OCOC(=O)Nc1ncnn2c([C@]3(C#N)O[C@H](COC(=O)C(C)(C)C4CCCCC4)[C@@H](O)[C@H]3O)ccc12 [Compound 375, ((2R,3S,4R,5R)-5-cyano-3,4-dihydroxy-5-(4-((((pivaloyloxy)methoxy)carbonyl)amino)pyrrolo[2,1-f][1,2,4]triazin-7-yl)tetrahydrofuran-2-yl)methyl 2-cyclohexyl-2-methylpropanoate] | 0.2 | 0.2 | 1.1 | 
15 | CC(C)(C)C(=O)OCOC(=O)Nc1ncnn2c([C@]3(C#N)O[C@H](COC(=O)[C@@H](N)Cc4ccccc4)[C@@H](OC(=O)CC4CCCCC4)[C@H]3O)ccc12 [Compound 374, (((7-((2R,3R,4S,5R)-5-(((L-phenylalanyl)oxy)methyl)-2-cyano-4-(2-cyclohexylacetoxy)-3-hydroxytetrahydrofuran-2-yl)pyrrolo[2,1-f][1,2,4]triazin-4-yl)carbamoyl)oxy)methyl pivalate] | 0.04 | 0.8 | 19 | 
16 | CC(C)[C@H](N)C(=O)OC[C@H]1O[C@@](C#N)(c2ccc3c(N)ncnn23)[C@H](O)[C@@H]1O [Compound 11, ((2R,3S,4R,5R)-5-(4-aminopyrrolo[2,1-f][1,2,4]triazin-7-yl)-5-cyano-3,4-dihydroxytetrahydrofuran-2-yl)methyl L-valinate] | 4 | 1 | 0.4 | 
17 | CC(=O)Nc1ncnn2c([C@]3(C#N)O[C@H](COC(=O)[C@@H](N)C(C)(C)C)[C@@H](OC(=O)CC4CCCCC4)[C@H]3O)ccc12 [Compound 373, ((2R,3S,4R,5R)-5-(4-acetamidopyrrolo[2,1-f][1,2,4]triazin-7-yl)-5-cyano-3-(2-cyclohexylacetoxy)-4-hydroxytetrahydrofuran-2-yl)methyl (S)-2-amino-3,3-dimethylbutanoate] | 240 | 290 | 1.2 | 
